Data as given in patent US6858642B1, “Indole derivatives” (Neurim Pharmaceuticals (1991) Ltd., priority 1999, dated 2005).
Like-named read-outs stand apart in the source and are kept apart here.

Columns and labels:
[1] = Scavenging activity on DPPH radicals (antioxidant effect); details: 10 μM addition; decrease in A517 of DPPH after 20 min at room temperature
Procedure: Radical scavenging activity was assayed in duplicates according to Blois, M. S., Nature, 1958, 181:1199. The reaction mixture contained 3 ml of 01 mM DPPH (in 95% ethanol) and 0.5 ml of the test compound. After 20 min. incubation at room temperature A517 was determined. The scavenging activity was measured as the decrease in A517 of the DPPH radical expressed as a percentage of the control value.

[2] = system: adult castrated male rats; assay: Androgen-dependent regrowth of ventral prostate and seminal vesicles in castrated rats, compounds given orally in drinking water; assay type: in vivo, rat; details: for Relative potency on testosterone-mediated prostate re-growth: comparison among compounds; for Dose dependence of the effect on prostate re-growth: 0.01 to 10 mg/l drinking water; for IC50: Rattus norvegicus, feed or water, read-out: IC50 on prostate re-growth
Text: The effects of orally administered compounds of the invention, MLP-76,77, 79 and 92, on androgen-dependent prostatal regrowth in adult castrated male rats was investigated Male rats (2.5 months old) were castrated under anesthesia and left to recover for 7 days. During this period, the average weight of the prostate decreased by approximately 75%. Beginning on day 7 after castration, the rats were given daily subcutaneous injections of either oil vehicle (control) or oil vehicle containing testosterone propionate (1 mg/kg body weight per day) for 4 days at 1 hour before lights off. […] In the morning following the last inject ion, the rats were sacrificed and the seminal vesicles and ventral prostates were removed and weighed.

[3] = Distribution of 125I-labelled compounds in organs of the adult male rat 1 h after ip injection; assay type: in vivo; details: retention pattern 1 h after ip injection
Procedure: The distribution of MLP-92 and MLP-77 in various organs of the rat was examined. 100 mcl saline containing 1×10^6 dpm ^125l-labelled compounds of the invention (labelling as described by Vakkuri et al., Acta Endocrinol., 106, 152-7, 1984) were injected (ip) to adult male rats. The rats were sacrificed 1 h after injection and various organs were dissected out and weighted. The contents of the radioactive derivatives in the rat organs (Brain, Hypothalamus, Pituitary, Eyes, Thyroid, Heart, Lungs, Kidneys. Spleen, Testis, Prostate and seminal vesicle) were determined using a gamma-counter and the results are presented as dpm/g organ wet-weight.

[4] = Table 2, 10 mg/l drinking water
[5] = Table 2, testosterone + compound 10 mg/l drinking water, 4 days
[6] = Table 3, 0.01 mg/l drinking water
[7] = Table 3, 0.1 mg/l drinking water
[8] = Table 3, testosterone + compound 0.01 mg/l drinking water
[9] = Table 3, testosterone + compound 0.1 mg/l drinking water
[10] = Table 2, testosterone propionate 1 mg/kg per day sc alone, 4 days
[11] = Table 3 (second group), testosterone propionate 1 mg/kg per day sc alone

Compound | Relative ratio of scavenging activity compared with Vitamin E (tocopherol) [1] | A = % inhibition of testosterone-stimulated growth (prostate) [2, 4] [%] | B = % inhibition of testosterone-stimulated growth (seminal vesicles) [2, 4] [%] | Prostate (mg/g body weight) [2, 5] [mg/g body weight] | Seminal Vesicles (mg/g body weight) [2, 5] [mg/g body weight] | Accumulation in the prostate [3] | further results
O=C(O)C=Cc1ccc(O)c(O)c1 [Caffeic acid, 3,4-Dihydroxycinnamic acid] | 2.8 | – | – | – | – | – | –
COc1ccc2[nH]cc(CCNC(=O)c3ccco3)c2c1 [MLP-76, 5-Methoxy-3-(2-(2-furamido)ethyl)indole] | – | 66 | 44 | 0.49 ± 0.09 | 1.82 ± 0.25 | – | Relative potency on testosterone-mediated prostate re-growth ([2]; Table 2): more potent then MLP-79, MLP-77 and melatonin
COc1ccc2[nH]cc(CCNC(=O)c3ccccc3OC(C)=O)c2c1 [MLP-77] | – | 40 | −18 | 0.57 ± 0.05 | 2.69 ± 0.49 | selective accumulation | –
COc1ccc2[nH]cc(CCNC(=O)C3CCCO3)c2c1 (stereo not drawn) [MLP-79, 5-Methoxy-3-(2-(tetrahydro-2-furamido)ethyl)indole] | – | 54 | 23 | 0.50 ± 0.04 | 2.00 ± 0.39 | selective accumulation | –
COc1ccc2[nH]cc(CCNCC3CCCO3)c2c1 (stereo not drawn) [MLP-92, 5-Methoxy-3-(2-(tetrahydro2-furylmethylamino)ethyl)indole] | – | 66 | 51 | 0.49 ± 0.04 | 1.54 ± 0.21 | selective accumulation | Dose dependence of the effect on prostate re-growth [2]: dose-dependent; IC50 [2]: 88 nM; A = % inhibition of testosterone-stimulated growth (prostate) [2, 6]: 19%; B = % inhibition of testosterone-stimulated growth (seminal vesicles) [2, 6]: 28%; A = % inhibition of testosterone-stimulated growth (prostate) [2, 7]: 62%; B = % inhibition of testosterone-stimulated growth (seminal vesicles) [2, 7]: 37%; Prostate (mg/g body weight) [2, 8]: 0.57 ± 0.04 mg/g body weight; Seminal Vesicles (mg/g body weight) [2, 8]: 1.57 ± 0.25 mg/g body weight; Prostate (mg/g body weight) [2, 9]: 0.46 ± 0.1 mg/g body weight; Seminal Vesicles (mg/g body weight) [2, 9]: 1.45 ± 0.13 mg/g body weight; Relative potency on testosterone-mediated prostate re-growth ([2]; Table 2): more potent then MLP-79, MLP-77 and melatonin
COc1ccc2[nH]cc(CCNC(C)=O)c2c1 [Melatonin, reference compound] | – | 44 | 30 | 0.55 ± 0.08 | 1.88 ± 0.03 | – | Dose dependence of the effect on prostate re-growth [2]: dose-dependent; IC50 ([2]; dose-dependent effect, compound in drinking water): 230 nM; A = % inhibition of testosterone-stimulated growth (prostate) [2, 6]: −15%; B = % inhibition of testosterone-stimulated growth (seminal vesicles) [2, 6]: 10%; A = % inhibition of testosterone-stimulated growth (prostate) [2, 7]: 31%; B = % inhibition of testosterone-stimulated growth (seminal vesicles) [2, 7]: 30%; Prostate (mg/g body weight) [2, 8]: 0.66 ± 0.08 mg/g body weight; Seminal Vesicles (mg/g body weight) [2, 8]: 1.81 ± 0.28 mg/g body weight; Prostate (mg/g body weight) [2, 9]: 0.54 ± 0.09 mg/g body weight; Seminal Vesicles (mg/g body weight) [2, 9]: 1.55 ± 0.24 mg/g body weight; Effect on testosterone-mediated re-growth of the ventral prostate gland ([2]; in the presence of testosterone (Table 2)): decreased significantly
CCC(=O)O[C@H]1CC[C@H]2[C@@H]3CCC4=CC(=O)CC[C@]4(C)[C@H]3CC[C@]12C [Testosterone, testosterone propionate, reference compound] | – | – | – | – | – | – | Prostate (mg/g body weight) [2, 10]: 0.77 ± 0.02 mg/g body weight; Seminal Vesicles (mg/g body weight) [2, 10]: 2.38 ± 0.16 mg/g body weight; Prostate (mg/g body weight) [2, 11]: 0.62 ± 0.1 mg/g body weight; Seminal Vesicles (mg/g body weight) [2, 11]: 1.95 ± 0.24 mg/g body weight
O=C1O[C@H]([C@@H](O)CO)C(O)=C1O [Vitamin C (ascorbic acid), ascorbic acid] | 1 | – | – | – | – | – | –
COc1ccc2[nH]cc(CCNC(=O)/C=C/c3ccc(O)c(O)c3)c2c1 [caffeic acid 5-methoxytryptamide, Caffeic Acid 5-Methoxytryptamide] | 3.2 | – | – | – | – | – | –
tocopherol [Vitamin E (tocopherol)] | 1 | – | – | – | – | – | –
